pKd: −log10 of the molar value.
Legend:
[1] = biological target: T1, swine growth hormone secretagogue receptor (Type I, clone 7-3) (Sus scrofa, UniProt Q95254); experiment: aequorin bioluminescence assay in Xenopus oocytes; type: cell-based; design: bioluminescence response: dose or concentration left out as unconfirmed
Method: (§1) Xenopus laevis oocytes were isolated and injected using standard methods previously described by Arena, et al., 1991, Mol. Pharmacol. 40, 368-374, which is hereby incorporated by reference. Adult female Xenopus laevis frogs (purchased from Xenopus One, Ann Arbor, Mich.) were anesthetized with 0.17% tricaine methanesulfonate and the ovaries were surgically removed and placed in a 60 mm culture dish (Falcon) containing OR-2 medium without calcium (82.5 mM NaCl, 2 mM KCl, 2.5 mM sodium pyruvate, 1 mM MgCl2, […] penicillin, 1 mg/ml streptomycin, 5 mM HEPES, pH=7.5; ND-96 from Specialty Media, N.J.). Ovarian lobes were broken open, rinsed several times, and oocytes were released from their sacs by collagenase A digestion (Boehringer-Mannheim; 0.2% for 2-3 hours at 18° C.) in calcium-free OR-2. […]
(§2) The ABA requires injection of library pool cRNA (25 ng/egg for pool sizes of 500 to 10,000) with aequorin cRNA (2 ng/egg) supplemented with the G-protein alpha subunit Ga11 (2 ng/egg). […] Polymerase chain reaction (PCR) was utilized to generate a DNA fragment corresponding to the open reading frame (ORF) of the aequorin cDNA with an optimized Kosak translational initiation sequence (Inouye, S. et. ul., 1985, Proc. Natl. Acad. Sci. USA 82:3154-3158). […]

[2] = biological target: T2, human growth hormone secretagogue receptor (Type I) (Homo sapiens, UniProt Q92847); experiment: aequorin bioluminescence assay in Xenopus oocytes; type: cell-based; conditions: human Type I cRNA expressed in oocytes; responded to concentrations ranging from 1 mM to as low as 0.1 nM
T2 construct: expressed in transfected cells; host or cells: Xenopus laevis oocytes injected with cRNA, together with aequorin and G-alpha-11 cRNA
Method: as §1, §2

rat GHSR type Ia = biological target: T3, rat GHSR type Ia (Rattus norvegicus, UniProt O08725); experiment: aequorin bioluminescence in transfected 293-AEQ17 reporter cells; type: cell-based; conditions: rat GHSR ORF construct in 293-AEQ17 cells; three replicate samples (FIG. 26)
T3 construct: Met-1 to Val-260 with EcoRI (5′) and HpaI (3′) restriction sites appended, while a carboxyl-terminal fragment was generated from Lys-261 to Thr-364; expressed in transfected cells; host or cells: 293-AEQ17 (HEK-293 aequorin reporter line), transient lipofectamine transfection of the pSV7 ORF construct
Method: Functional activity of the ORF construct was assessed by transfecting (using lipofectamine; GIBCO/BRL) […] of plasmid DNA into the aequorin expressing reporter cell line (293-AEQ17) cultured in 60 mm dishes. Following approximately 40 hours of expression the aequorin in the cells was charged for 2 hours with coelenterazine, the cells were harvested, washed and pelleted by low speed centrifugation into luminometer tubes. Functional activity was determined by measuring Compound A dependent mobilization of intracellular calcium and concomitant calcium induced aequorin bioluminescence.

[3] = biological target: T1, swine growth hormone secretagogue receptor (Type I, clone 7-3); experiment: 35S-Compound A binding assay, membranes of COS-7 cells transfected with clone 7-3

T1 sequence (Q95254 65-366): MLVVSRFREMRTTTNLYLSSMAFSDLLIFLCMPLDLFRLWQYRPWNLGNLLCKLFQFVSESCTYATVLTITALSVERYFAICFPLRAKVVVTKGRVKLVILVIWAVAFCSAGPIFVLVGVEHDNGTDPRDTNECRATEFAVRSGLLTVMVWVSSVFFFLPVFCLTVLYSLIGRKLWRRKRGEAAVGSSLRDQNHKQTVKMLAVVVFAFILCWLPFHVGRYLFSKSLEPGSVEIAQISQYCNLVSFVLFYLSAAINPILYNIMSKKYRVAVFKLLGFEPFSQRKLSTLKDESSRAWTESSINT
T3 sequence (O08725 whole entry, the tested form may be a part): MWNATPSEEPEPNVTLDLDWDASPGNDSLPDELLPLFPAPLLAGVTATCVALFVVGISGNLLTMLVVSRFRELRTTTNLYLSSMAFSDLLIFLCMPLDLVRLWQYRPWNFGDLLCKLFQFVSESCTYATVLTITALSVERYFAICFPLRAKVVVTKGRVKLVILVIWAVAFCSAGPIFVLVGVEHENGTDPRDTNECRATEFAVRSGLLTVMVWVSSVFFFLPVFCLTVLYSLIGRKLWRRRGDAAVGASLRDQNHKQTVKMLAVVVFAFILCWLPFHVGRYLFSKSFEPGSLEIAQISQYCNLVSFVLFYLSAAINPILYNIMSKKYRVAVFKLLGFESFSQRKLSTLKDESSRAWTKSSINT
T2 sequence (Q92847 whole entry): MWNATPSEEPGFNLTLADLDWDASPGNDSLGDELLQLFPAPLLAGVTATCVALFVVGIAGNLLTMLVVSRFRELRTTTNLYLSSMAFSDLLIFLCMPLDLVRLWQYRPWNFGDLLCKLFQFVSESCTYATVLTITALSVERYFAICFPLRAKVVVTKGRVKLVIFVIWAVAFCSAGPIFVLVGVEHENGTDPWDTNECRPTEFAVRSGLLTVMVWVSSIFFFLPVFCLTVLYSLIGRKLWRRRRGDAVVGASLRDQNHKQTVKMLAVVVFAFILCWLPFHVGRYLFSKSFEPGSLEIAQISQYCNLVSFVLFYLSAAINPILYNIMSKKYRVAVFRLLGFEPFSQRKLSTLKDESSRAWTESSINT

Row | Structure (SMILES) | bioluminescence response ([1]; oocytes injected with cRNA of clones 7-3 and 28-18) | lowest Compound A concentration giving a response ([1]; swine Type I cRNA expressed in oocytes, responded to concentrations ranging from 1 mM to as low as 0.1 nM) [nM] | lowest Compound A concentration giving a response [2] [nM] | luminescent response (mobilization of intracellular calcium) (rat GHSR type Ia) | pKd [3] | Bmax ([3]; clone 7-3 expressed transiently in COS-7 cells, saturable binding) [fmol/mg protein]
1 | CC(C)(N)C(=O)N[C@H](COCc1ccccc1)C(=O)N1CCC2(CC1)CN(S(C)(=O)=O)c1ccccc12 [Compound A] | positive bioluminescence response | 0.1 | 0.1 | luminescent responses |  | 
2 | CC(C)(N)C(=O)N[C@H](COCc1ccccc1)C(=O)N1CCC2(CC1)CN([35S](C)(=O)=O)c1ccccc12 [^35S-Compound A] |  |  |  |  | ~9.70 | ~80

From patent publication US6531314B1, “Growth hormone secretagogue receptor family” (Merck & Co., Inc., priority 1998, dated 2003)
